“And” between values parts separate entries of the source, which are not always exact repeats. Equal entries are not always repeated.
What was measured:
UVB induced oedema = assay: UVB erythema assay (net skin fold thickness); assay type: in vivo, Skh-1 hairless albino female mice; details: for activity equivalent to % of the hydrocortisone activity in protecting against UVB induced oedema: 0.5 mg/mouse, applied at Day 0, post UVB exposure
[1] = system: UVB induced immunosuppression; assay: Contact Hypersensitivity Assay (oxazolone, net ear swelling); assay type: in vivo, mice; details: total 3 MED UVB
From the text: The assay used the method described in “Current Protocols in Immunology” (Vol 1, Section 4.2 Eds Coligan et al. (1991) NIH). The sensitiser was Oxazalone. Briefly this method was as follows:
UVB Radiation. Mice were irradiated with a single FL40SE UVB fluorescent tube (Oliphant) in a reflective batten, providing […] UVB radiation measured at target distance using an International Light IL1700 radiometer with a UVB detector sensitive between 250-315 nm. The mice received 0.1179 J/cm^2 UVB radiation, constituting 1 minimal erythemal dose (MED) as previously ascertained, on each of 3 consecutive days, being exposed unrestrained with the wire cage tops removed.
Induction of Systemic Contact Hypersensitivity. Test mice were exposed on the dorsum to 1 MED UVB radiation (or no UVB radiation) at the same hour on days 1, 2 and 3. On days 8 and 9, the mice (irradiated and non-irradiated) were sensitized by topical application to the abdominal skin of 0.1 ml of 3% (w/v) oxazolone (Sigma Chemical Co., St Louis, Mo.) freshly prepared in ethanol. On day 15, the pre-challenge ear thickness was measured using the spring micrometer, and the mice were then challenged by the application of 5 ul freshly prepared 3% oxazolone/ethanol solution to both surfaces of each pinna. Ear thickness was again measured repeatedly between 16-24 hours, and the maximum ear thickness was recorded. The net ear swelling was calculated as the difference between the average pre-challenge and the average post-challenge ear thickness for each treatment group. Statistical significance of the differences in net ear swelling between treatment groups was assessed with Student's t test.
The mice were painted with vehicle, 0.5 mg/mouse HC, 0.5 mg/mouse HC-Suc-GTP2. 1 mg/mouse 17-b HC-Suc-GTP3 or 17-b HC within 10 minutes post UVB exposure. A total of 3 MED of unshielded UVB was used. (Table 3)

[2] = system: JURKAT cells (acute T cell human leukemia); details: for IC50 / activity (cytotoxicity) when delivered to cultures in ethanol: JURKAT; for IC50: drugs coated onto plates (Table 9); for activity (cytotoxicity) when delivered to cultures in ethanol: ethanol delivery
Procedure: The cytotoxicity of chlorambucil and chlorambucil fatty acid conjugates (CGTP1. P2 and P3) were tested in vitro with JURKAT cells (acute T cell human leukemia). Cells were incubated with drug and viability was determined by a colourmetric proliferation test. Cytotoxicity towards other cells lines was also tested (PC3 human prostate cancer cells, B16 mouse melanoma cells and human peripheral blood mononuclear cells).
JURKAT cells were seeded into 96-well plates at a density of 1.6×10^4 cells/200 μl complete RPMI ± drug and cultured for 64 h. A 1:3 split of confluent PC3 cells in a 75 cm^2 flask were seeded into a 96-well plate and cultured for 48 h in complete RPMI. Media was removed and complete RPMI ± drug was added to wells. Cells were further cultured for 72 h.
i) Ethanol. Drugs were dissolved in ethanol and added to culture media. The final concentration of ethanol in media was no greater than 1% (v/v). This delivery was used for experiments with JURKAT, PBMC, PC3 and B16 cell types.
ii) Coating of plates. Drugs were dissolved in ethanol and aliquots (up to 40 μl) were added to 90% (v/v) isopropanol. Solution (50 μl) was then added to wells of a 96-well plate and the solvent evaporated by heating at 37° C. Media ± cells was then added. This delivery was used for some experiments with JURKAT cells.
Viability was determined using the MTS assay (CellTiter 96TM AQueous Non-Radioactive Cell Proliferation Assay) from Promega. Reagent (40 μl) was added to each well and absorbance values at 490 nm were determined 1 to 4 h later. The effect of drug on cell viability was compared to cultures set up containing no drug (100% viability). Wells containing no cells were used to control for background absorbance (0% viability). Each concentration was tested in at least 3 wells. Concentrations necessary to cause a 50% inhibition of cellular growth of control cells (IC50) were calculated by linear regression.

B16 melanoma cells = assay: Tumour Cytotoxicity Model (B16 melanoma in C57 mice); assay type: in vivo, C57 black mice; parameters: Mean (standard error) of B16 tumour volume adjusted for the variation in initial volume: scale not given here; details: for Mean (standard error) of B16 tumour volume adjusted for the variation in initial volume: statistically modified tumour volume; for B16 Tumour Volume: individual mice
Procedure: Groups of C57 black mice were given an initiation dose of 2×10^5 B16 melanoma cells as an intradermal injection. The cells were suspended in MEM without serum. The abdomen was clipped and 100 μl of cells + MEM was injected. […] The tumours were measured with a micrometer and photographed just prior to the injection of drug (day 8-10).
The cytotoxic drugs and their fatty acid conjugates were dissolved or suspended in 4:1 soy bean oil:ethyl oleate. A 10 mg/ml or a 20 mg/ml solution of each parent drug or the fatty acid conjugate made to the same molar concentration as the parent drug was then injected into the same region as the tumour at a dose of 0.5 mg or 1 mg. The tumours were then photographed, measured and re-injected every two to three days.

HIV-I U4550 = assay: Anti HIV activity, Ag gp120 production in infected JM cells; assay type: cell-based; details: JM cells infected with HIV-I U4550, 5 days; read-out: EC50 (concentration which reduces Ag gp120 by 50% in infected cell cultures)
Procedure: (§1) The anti-HIV activities of AZT-Suc-GTP1 and AZT-Suc-GTP2 were also tested. Infected cells were incubated for 5 days with compound. Compounds were dissolved in DMSO and 5-fold dilutions were used. The following parameters were measured: syncytia formation, virus antigen gp120 production, cell survival. Cytotoxicity is also measured in uninfected cells.
(§2) JM (semi mature human T-cell from lymphoblastoid leukemia) infected with HIV-I U4550
EC50=concentration which reduces Ag gp120by 50% in infected cell cultures.

[3] = system: JM (semi mature human T-cell from lymphoblastoid leukemia); assay: Cell growth (cytotoxicity) in JM cells; assay type: cell-based; details: 5 days, read-out: IC50 (concentration of drug which reduces cell growth by 50%)
Procedure: as §1, §2
IC50=concentration of drug which reduces cell growth by 50%.

[4] = 0.5 mg/mouse topical, applied Day 0 after UV exposure, 2MED UVB
[5] = 0.5 mg/mouse topical, applied Day −3 (3 days prior to UV exposure), 2MED UVB
[6] = 1% (1 mg/mouse) painted within 10 minutes post UVB exposure
[7] = 0.5 mg/mouse topical in ethanol, applied Day −5 (5 days prior to UV exposure), 2MED UVB, measured 24 h
[8] = 1 mg/mouse (1% w/v) topical, applied Day 0 after UV exposure
[9] = 1 mg/mouse (1% w/v) topical, applied Day −3
[10] = 0.5% (0.5 mg/mouse) painted within 10 minutes post UVB exposure

Compound: CCCCCCCCCCCCCCCC(=O)OCC(COC(=O)CCCCCCCCCCCCCCC)(COC(=O)CCCCCCCCCCCCCCC)NC(=O)CNC(=O)CCC(=O)OCC(=O)[C@@]1(O)CC[C@H]2[C@@H]3CCC4=CC(=O)CC[C@]4(C)[C@H]3[C@@H](O)C[C@@]21C [17-b HC-Suc-GTP3, 17-b Hydrocortisone-21-Suc-Gly-Tris-Tripalmitate]
- Mean Net Skin Fold Thickness (UVB induced oedema; [4]): 42.7 ± 13.7 10^−2 mm
- Mean Net Skin Fold Thickness (UVB induced oedema; [5]): 90.7 ± 14.8 10^−2 mm
- activity equivalent to % of the hydrocortisone activity in protecting against UVB induced oedema (UVB induced oedema): approximately 50%
- Net Ear Swelling [1, 6]: 32.8 10^−2 mm

Compound: CCCC(=O)O[C@]1(C(=O)CO)CC[C@H]2[C@@H]3CCC4=CC(=O)CC[C@]4(C)[C@H]3[C@@H](O)C[C@@]21C [17b-Hydrocortisone, 17-Butyrate-Hydrocortisone, reference compound]
- Net Ear Swelling [1, 6]: 38.6 10^−2 mm

Compound: CCCCCCCCCCCCCCCC(=O)OCC(CO)(COC(=O)CCCCCCCCCCCCCCC)NC(=O)CNC(=O)CCCc1ccc(N(CCCl)CCCl)cc1 [CGTP2]
- IC50 [2]: 17.7 µM
- activity (cytotoxicity) when delivered to cultures in ethanol [2]: not observed
- difference in tumour volume from the Vehicle group (95% level) (B16 melanoma cells; 0.5 mg and 1.0 mg groups): significant difference
- Mean (standard error) of B16 tumour volume adjusted for the variation in initial volume (B16 melanoma cells; 13/11/95, 0.5 mg): 2.39 (0.523)
- Mean (standard error) of B16 tumour volume adjusted for the variation in initial volume (B16 melanoma cells; 13/11/95, 1.0 mg): 2.58 (0.523)
- Mean (standard error) of B16 tumour volume adjusted for the variation in initial volume (B16 melanoma cells; 15/11/95, 0.5 mg): 4.07 (0.881)
- Mean (standard error) of B16 tumour volume adjusted for the variation in initial volume (B16 melanoma cells; 15/11/95, 1.0 mg): 3.89 (0.819)
- Mean (standard error) of B16 tumour volume adjusted for the variation in initial volume (B16 melanoma cells; 16/11/95, 0.5 mg): 4.84 (1.06)
- Mean (standard error) of B16 tumour volume adjusted for the variation in initial volume (B16 melanoma cells; 16/11/95, 1.0 mg): 4.23 (0.98)
- Mean (standard error) of B16 tumour volume adjusted for the variation in initial volume (B16 melanoma cells; 17/11/95, 0.5 mg): 4.90 (1.28)
- Mean (standard error) of B16 tumour volume adjusted for the variation in initial volume (B16 melanoma cells; 17/11/95, 1.0 mg): 4.84 (1.19)
- B16 Tumour Volume (B16 melanoma cells; Day 1, drug dose 0.5 mg injected at tumour region): 0.5 mm^2 and 1.0 mm^2 and 2.7 mm^2
- B16 Tumour Volume (B16 melanoma cells; Day 1, drug dose 0.5 mg injected at tumour region, listed as CCTP2): 14.1 mm^2
- B16 Tumour Volume (B16 melanoma cells; Day 1, drug dose 1.0 mg): 8.2 mm^2 and 38.3 mm^2
- B16 Tumour Volume (B16 melanoma cells; Day 1, drug dose 1.0 mg, listed as CCTP2): 5 mm^2
- B16 Tumour Volume (B16 melanoma cells; Day 3, drug dose 0.5 mg): 0.3 mm^2 and 1 mm^2 and 0 mm^2
- B16 Tumour Volume (B16 melanoma cells; Day 3, drug dose 0.5 mg, listed as CCTP2): 27.4 mm^2
- B16 Tumour Volume (B16 melanoma cells; Day 3, drug dose 1.0 mg): 32.7 mm^2 and 73.5 mm^2
- B16 Tumour Volume (B16 melanoma cells; Day 3, drug dose 1.0 mg, listed as CCTP2): 0 mm^2 and 7.7 mm^2
- B16 Tumour Volume (B16 melanoma cells; Day 5, drug dose 0.5 mg): 11.8 mm^2 and 19.1 mm^2 and 0.0 mm^2
- B16 Tumour Volume (B16 melanoma cells; Day 5, drug dose 0.5 mg, listed as CCTP2): 82.8 mm^2
- B16 Tumour Volume (B16 melanoma cells; Day 5, drug dose 1.0 mg): 111.9 mm^2 and 174.1 mm^2
- B16 Tumour Volume (B16 melanoma cells; Day 5, drug dose 1.0 mg, listed as CCTP2): 0 mm^2 and 38.3 mm^2
- B16 Tumour Volume (B16 melanoma cells; Day 6, drug dose 0.5 mg): 19.8 mm^2 and 13.6 mm^2 and 0 mm^2
- B16 Tumour Volume (B16 melanoma cells; Day 6, drug dose 0.5 mg, listed as CCTP2): 167.4 mm^2
- B16 Tumour Volume (B16 melanoma cells; Day 6, drug dose 1.0 mg): 108.4 mm^2 and 240.3 mm^2
- B16 Tumour Volume (B16 melanoma cells; Day 6, drug dose 1.0 mg, listed as CCTP2): 0 mm^2 and 61.6 mm^2
- B16 Tumour Volume (B16 melanoma cells; Day 7, drug dose 0.5 mg): 21.8 mm^2 and 35.1 mm^2 and 0 mm^2
- B16 Tumour Volume (B16 melanoma cells; Day 7, drug dose 0.5 mg, listed as CCTP2): 152.8 mm^2
- B16 Tumour Volume (B16 melanoma cells; Day 7, drug dose 1.0 mg): 254.1 mm^2 and 215.0 mm^2
- B16 Tumour Volume (B16 melanoma cells; Day 7, drug dose 1.0 mg, listed as CCTP2): 0 mm^2 and 92.6 mm^2

Compound: CCCCCCCCCCCCCCCC(=O)OCC(COC(=O)CCCCCCCCCCCCCCC)(COC(=O)CCCCCCCCCCCCCCC)NC(=O)CNC(=O)CCCc1ccc(N(CCCl)CCCl)cc1 [CGTP3, Chlorambucil-Gly-Tris-Tripalmitate]
- IC50 [2]: 30 µM
- activity (cytotoxicity) when delivered to cultures in ethanol [2]: not observed

Compound: CCCCCCCCCCCCCCCC(=O)OCC(CO)(CO)NC(=O)CN [GTP1, Glycine-Tris-Monopalmitate, reference compound]
- cytotoxicity to JURKAT cells (in words) [2]: no activity

Compound: CCCCCCCCCCCCCCCC(=O)OCC(CO)(COC(=O)CCCCCCCCCCCCCCC)NC(=O)CNC(=O)CCC(=O)OCC(=O)C1(O)CCC2C3CCC4=CC(=O)CCC4(C)C3C(O)CC21C (stereo not drawn) [HC-Suc-GTP2, Hydrocortisone-Suc-Gly-Tris-Dipalmitate]
- Mean Net Skin Fold Thickness (UVB induced oedema; [7]): 104.2 ± 14.7 10^−2 mm
- Mean Net Skin Fold Thickness (UVB induced oedema; [4]): 60.6 ± 8.6 10^−2 mm
- Mean Net Skin Fold Thickness (UVB induced oedema; [5]): 94.3 ± 10.3 10^−2 mm
- activity equivalent to % of the hydrocortisone activity in protecting against UVB induced oedema (UVB induced oedema): approximately 50%
- Mean Net Skin Fold Thickness (UVB induced oedema; [8]): 57.5 ± 10.9
- Mean Net Skin Fold Thickness (UVB induced oedema; [9]): 60.8 ± 8.8
- Net Ear Swelling [1, 10]: 29.8 10^−2 mm

Compound: C[C@]12CCC(=O)C=C1CC[C@@H]1[C@@H]2[C@@H](O)C[C@@]2(C)[C@H]1CC[C@]2(O)C(=O)CO [Hydrocortisone, hydrocortisone (cortisol or 17 hydroxy corticosterone), reference compound]
- protection from erythema and oedema (UVB induced oedema; 0.5 mg/mouse topical in ethanol after 2 MED UVB, 24 h): ~100%
- Mean Net Skin Fold Thickness (UVB induced oedema; [7]): 102.7 ± 12.1 10^−2 mm
- Mean Net Skin Fold Thickness (UVB induced oedema; [4]): 10.4 ± 8.19 10^−2 mm
- Mean Net Skin Fold Thickness (UVB induced oedema; [5]): 100.9 ± 7.3 10^−2 mm
- Mean Net Skin Fold Thickness (UVB induced oedema; [8]): 7.9 ± 4.4
- Mean Net Skin Fold Thickness (UVB induced oedema; [9]): 62.9 ± 4.0
- Mean Net Skin Fold Thickness (UVB induced oedema; 1 mg/mouse (1% w/v) topical, applied Day −5): 108.3 ± 5.1
- Net Ear Swelling [1, 10]: 32.0 10^−2 mm

Compound: O=c1[nH]cnc2c1ncn2[C@H]1CC[C@@H](CO)O1 [ddI, reference compound]
- EC50 (HIV-I U4550): 1 µM
- IC50 [3]: > 100 µM
